The subject of assay [1] is other major SULT isoforms found in liver and brain. The experiment in a line: Inhibition of SULT isoforms by CMP8 (FIG. 1). It is filed as biochemical. The conditions noted are these: at concentrations as high as 2 mM. On the procedure: The initial rates of SULT catalyzed 1-HP sulfonation are plotted as a function of inhibitor concentration, and are normalized relative to [inhibitor]=0. Enzyme activity was monitored by the sulfonation dependent change in 1-HP fluorescence (λex=325 nm, λem=370 nm). Less than 5% of the concentration-limiting substrate converted at the reaction endpoint was consumed during initial-rate measurements. Each point is the average of three independent determinations. Conditions: SULT (20 nM, active sites), PAPS (0.50 mM, 17×Km), 1-HP (5.0 μM, 61×Km), KPO4 (50 mM), pH 7.5, 25±2° C.
Such inhibitors alleviate inhibition when used competitively against total inhibitors that bind at the same site. […] Given these favorable characteristics, it was reasoned that the CMP8-binding site offered a new target that could be used to control 1A3 activity. Consequently, the solution structure of the CMP8-binding site was determined using spin-label-triangulation NMR. As used herein, the “CMP8-binding site” refers to the SULT1A3 allosteric site defined herein, which is different from the catechin- and NSAID-binding sites.

Assay [2] deals with T1, SULT1A3 L67G (Homo sapiens, UniProt P0DMM9, L67G).
T1 construct: N-His/GST/MBP triple-tag (N, cleaved yes); made in house; host or cells: E. coli BL21(DE3)
Briefly: Binding-site mutation effect on Ki CMP8, L67G. In kind it is biochemical. The conditions noted are these: L67G versus wild type. On the procedure:
Initial-Rate Studies. Initial-rate parameters for the labeled or mutant SULT1A3 constructs were determined using a previously described 1-HP assay (25). Briefly, reactions were initiated by addition of PAPS (0.50 mM, 17×Km) to a solution containing enzyme (20 nM, active sites), 1-HP (2.0 μM, ˜24×Km), and KPO4 (50 mM), pH 7.5, 25±2° C. Reactions were monitored via fluorescence change associated with the conversion of 1-HP to 1-HP-S (λex=325 nm, λem=370 nm). Keq for the 1-HP sulfonation reaction is […]. Given the reaction conditions outlined above, ≥99% of 1-HP is converted to 1-HP-S, and ˜0.4% of PAPS is converted to PAP at equilibrium. […] Reaction progress curves were analyzed to obtain initial-rate parameters as described previously (26,27).
Inhibition studies. Inhibition parameters were determined under conditions identical to those described above (see, Initial-Rate Studies) except that [1-HP] was increased to 5.0 μM (˜61×Km) and inhibitor concentration was varied between 0.20-20×Ki. Ki was obtained using a least-squares fit to the following partial inhibition equation (25,28): v=kcat·(Ki+(1/kcat inh)·[I])/(Ki+[I]), where kcat inh is enzyme turnover at saturating substrates and allosteric inhibitor.
Confirming the Structure. The structure was validated by testing its ability to predict the consequences of mutations on the initial-rate parameters of the enzyme. […]

Assay [3] has as its target SULT1A3 spin-labeled at Cys 198 (Homo sapiens, UniProt P0DMM9, E198C). Briefly: Initial-rate parameters, spin-labeled SULT1A3 mutant 198.
Protocol: (§3) Covalent Tagging of SULT1A3 Cys Constructs. Labeling of the SULT1A3 Cys constructs was performed as described previously (17,18,21). Briefly, 3-maleimido-PROXYL (spin label) or N-cyclohexylmaleimide (diamagnetic control) was added to an enzyme containing solution at 20-fold excess over reactive Cys. Unreacted Cys was monitored using DNTB (17,18,21); reactions were considered complete when >98% of the Cys was labeled. Reaction conditions: SULT1A3 (50 μM, monomer), 3-maleimido-PROXYL or N-cyclohexylmaleimide (1.0 mM), PAP (0.50 mM), KPO4 (50 mM), pH 7.5, 4±2° C. To prepare samples for NMR, reaction mixtures were dialyzed three times against 40 volumes of PAP (0.50 mM), KPO4 (50 mM), pD 7.4, D2O (>95%), 4±2° C.
(§4) Initial-Rate Studies. Initial-rate parameters for the labeled or mutant SULT1A3 constructs were determined using a previously described 1-HP assay (25). […] Reactions were monitored via fluorescence change associated with the conversion of 1-HP to 1-HP-S (λex=325 nm, λem=370 nm). Keq for the 1-HP sulfonation reaction is −250. Given the reaction conditions outlined above, ≥99% of 1-HP is converted to 1-HP-S, and ˜0.4% of PAPS is converted to PAP at equilibrium. […] Reaction progress curves were analyzed to obtain initial-rate parameters as described previously (26,27).
Assay [4] addresses SULT1A3 spin-labeled at Cys 234 (Homo sapiens, UniProt P0DMM9, K234C). The experiment in a line: Initial-rate parameters, spin-labeled SULT1A3 mutant 234.
Protocol: as §3, §4
Assay [5] deals with T2, Rat (1D1) (Rattus norvegicus, UniProt G3V9R3).
T2 sequence (G3V9R3 1-295): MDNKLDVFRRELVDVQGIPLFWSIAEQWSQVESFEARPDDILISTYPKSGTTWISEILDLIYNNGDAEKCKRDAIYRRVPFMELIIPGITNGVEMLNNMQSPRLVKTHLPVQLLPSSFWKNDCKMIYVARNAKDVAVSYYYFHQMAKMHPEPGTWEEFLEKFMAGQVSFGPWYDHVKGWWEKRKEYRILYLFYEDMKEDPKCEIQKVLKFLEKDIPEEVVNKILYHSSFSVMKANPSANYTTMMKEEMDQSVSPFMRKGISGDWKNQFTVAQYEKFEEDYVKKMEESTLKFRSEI
Briefly: Inhibition of SULT1A3 homologues in different species: Rat. It is filed as biochemical. On the procedure:
(§1) Compounds 12, 23 and 25 were also tested for Inhibition of SULT1A3 in different species.
(§2) Inhibition of SULT1A3 Homologues in Different Species. SULT1A3 is only expressed in humans and higher primates. SULT1D1 is the isoform expressed in dogs and rodents that sulfonates neurotransmitters and is most similar to SULT1A3. Three synthesized allosteres (12, 23, and 25) were tested against both 1A3 and 1D1 from different species in order to explore testing in animal models. […] Mice have been engineered such that their SULT1A1/2 enzymes have been knocked out and replaced with the human versions of those isoforms.

Assay [6] concerns the target Rhesus Macaque (1A3) (Macaca mulatta, UniProt A0A5F7ZQH3). Briefly: Inhibition of SULT1A3 homologues in different species: Rhesus Macaque. In kind it is biochemical. On the procedure:
as §1, §2

Assay [7] addresses Mouse (1D1) (Mus musculus, UniProt Q3UZZ6). The experiment in a line: Inhibition of SULT1A3 homologues in different species: Mouse. In kind it is biochemical. On the procedure: as §1, §2
In assay [8] the target is SULT1A3 (Homo sapiens, UniProt P0DMM9). The experiment in a line: Dopamine sulfonation by SULT1A3-expressing HME cells. It is filed as cell-based. Particulars: dopamine 100 μM, 24 hours, best-fit titration curve, read-out: EC50, inhibition of dopamine sulfonation. On the procedure: Cells were incubated with 100 μM dopamine and incubation media was sampled for dopamine and dopamine sulfate at the indicated time intervals. The dopamine and dopamine sulfate levels in the SULT1A3 (+) strain are shown as red and blue dots, respectively. Only dopamine (green dots) was detected using the SULT1A3 (−) strain.
HME cells were incubated with dopamine (100 μM) and Compound 12 (at the indicated concentrations) for 24 hours at which time the dopamine (red dots) and dopamine sulfate (blue dots) levels were determined. […] The chromatography was performed using a PFP-HPLC column. […] Further, the data in Table A reveal that Compound 12 is highly specific for the SULT1A3 isoform.
HME cells expressing SULT1A3 were incubated for 24 hours with dopamine (100 μM) and Compound 23 (at the indicated concentrations) at which time the dopamine (red dots) and dopamine sulfate (blue dots) concentrations were determined using the methods associated with FIG. 10B.

Assay [9] addresses Green Monkey (1A3) (Chlorocebus sabaeus, UniProt Z9LO20H8W3). The experiment in a line: Inhibition of SULT1A3 homologues in different species: Green Monkey. In kind it is biochemical. On the procedure: as §1, §2

Chain of Mouse (1D1) (Q3UZZ6 whole entry): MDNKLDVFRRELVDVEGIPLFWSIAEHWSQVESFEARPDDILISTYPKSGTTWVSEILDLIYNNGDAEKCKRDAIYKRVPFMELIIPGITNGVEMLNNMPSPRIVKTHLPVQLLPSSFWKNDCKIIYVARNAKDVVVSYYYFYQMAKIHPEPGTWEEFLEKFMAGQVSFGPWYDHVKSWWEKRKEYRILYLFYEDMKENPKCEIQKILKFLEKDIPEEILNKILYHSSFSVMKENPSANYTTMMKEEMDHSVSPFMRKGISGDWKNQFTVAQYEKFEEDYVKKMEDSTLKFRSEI
Chain of Green Monkey (1A3) (Z9LO20H8W3 1-295): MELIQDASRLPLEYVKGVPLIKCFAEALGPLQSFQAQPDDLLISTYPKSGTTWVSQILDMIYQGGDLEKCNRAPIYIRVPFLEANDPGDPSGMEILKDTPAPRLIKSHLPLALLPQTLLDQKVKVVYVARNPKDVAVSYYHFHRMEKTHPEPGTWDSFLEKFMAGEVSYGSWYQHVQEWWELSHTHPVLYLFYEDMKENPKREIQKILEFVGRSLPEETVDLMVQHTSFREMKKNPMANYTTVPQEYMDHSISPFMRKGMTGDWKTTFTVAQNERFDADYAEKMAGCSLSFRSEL
Chain of Rhesus Macaque (1A3) (A0A5F7ZQH3 1-295): as the sequence (Z9LO20H8W3 1-295) above, with A7T, V15M, C23Y, R230K, Y247F, A278E counted along it
Chain of SULT1A3 spin-labeled at Cys 198 (P0DMM9 whole entry E198C): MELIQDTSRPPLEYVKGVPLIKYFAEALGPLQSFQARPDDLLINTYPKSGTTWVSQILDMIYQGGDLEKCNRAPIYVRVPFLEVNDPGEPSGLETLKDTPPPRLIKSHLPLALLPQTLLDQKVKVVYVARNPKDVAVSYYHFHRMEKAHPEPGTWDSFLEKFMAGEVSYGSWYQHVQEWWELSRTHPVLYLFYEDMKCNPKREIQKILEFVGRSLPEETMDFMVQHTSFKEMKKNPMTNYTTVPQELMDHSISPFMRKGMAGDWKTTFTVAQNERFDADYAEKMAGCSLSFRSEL
Chain of SULT1A3 (P0DMM9 whole entry): as the sequence (P0DMM9 whole entry E198C) above, with C198E counted along it
Chain of SULT1A3 spin-labeled at Cys 234 (P0DMM9 whole entry K234C): as the sequence (P0DMM9 whole entry E198C) above, with C198E, K234C counted along it
T1 sequence (P0DMM9 whole entry L67G): as the sequence (P0DMM9 whole entry E198C) above, with L67G, C198E counted along it

The Ki is a dissociation constant, usually derived from enzyme kinetics or from competition with a known ligand. On to `CC(C)Cc1ccc2cc(CO)ccc2n1` [Compound 8, (2-Isobutylquinolin-6-yl)methanol], for which, in [1], the “inhibition of other major SULT isoforms” value is “does not detectably inhibit”. Besides, in assay [2], the “increase in Ki CMP8” value stood at 5.3 fold. The Ki in assay [3] came out at 0.046 µM; in assay [4], 0.031 µM.

As a reminder, the EC50 is the midpoint of the concentration-response curve. As to `CC(C)Cc1ccc2cc(CCC(N)=O)ccc2n1` [Compound 12], in assay [5], the “Rat (1D1) % inh” value is 33 (4) %. The Ki in [5] (parentheses one standard error) came to 2.5 µM; in assay [6] (parentheses one standard error), 0.038 µM; in assay [7] (parentheses one standard error), 0.079 µM; in [9] (parentheses one standard error), 0.17 µM. Moreover, the “Rhesus Macaque (1A3) % inh” value in [6] is recorded as 97 (2) %. The “Mouse (1D1) % inh” value in assay [7] was 82 (2) %. Further, in assay [8], the EC50 is 0.25 ± 0.087 µM. Also, the “Green Monkey (1A3) % inh” value in [9] is given as 71 (3) %.

The record behind these values is US12291504B2 (University of Pittsburgh—Of the Commonwealth System of …, priority 2018, dated 2025).
